# Measurements: ChEMBL document CHEMBL4346715, “Antibacterial activity study of 1,2,4-triazole derivatives” (Eur J Med Chem, 2019)
# Legend:
# [1] = tested on: Pseudomonas aeruginosa; test: Antibacterial activity against Pseudomonas aeruginosa ATCC 27853 after 24 hrs by broth microdilution method; format: functional; conditions: ATCC 27853, 24 h
# [2] = tested on: Escherichia coli; test: Antibacterial activity against Escherichia coli after 24 hrs by broth microdilution method; format: functional
# [3] = tested on: Listeria monocytogenes; test: Antibacterial activity against Listeria monocytogenes ATCC 35152 after 24 hrs by broth microdilution method; format: functional; conditions: ATCC 35152, 24 h
# [4] = tested on: Salmonella typhimurium; test: Antibacterial activity against Salmonella typhimurium ATCC 14028 after 24 hrs by broth microdilution method; format: functional, Salmonella enterica subsp. enterica serovar Typhimurium; conditions: Salmonella enterica, ATCC 14028, 24 h
# [5] = tested on: Staphylococcus aureus; test: Antibacterial activity against Staphylococcus aureus ATCC 49444 after 24 hrs by broth microdilution method; format: functional; conditions: ATCC 49444, 24 h
# [6] = tested on: Bacillus subtilis; test: Antibacterial activity against Bacillus subtilis; format: functional
# [7] = tested on: Clostridium tetani; test: Antibacterial activity against Clostridium tetani; format: functional
# [8] = tested on: Streptococcus pneumoniae; test: Antibacterial activity against Streptococcus pneumoniae; format: functional
# [9] = tested on: Staphylococcus aureus; test: Antibacterial activity against Staphylococcus aureus; format: functional
# [10] = tested on: Escherichia coli; test: Antibacterial activity against Escherichia coli; format: functional
# [11] = tested on: Pseudomonas aeruginosa; test: Antibacterial activity against Pseudomonas aeruginosa; format: functional
# [12] = tested on: Candida albicans; test: Antifungal activity against Candida albicans; format: functional
# [13] = tested on: Aspergillus niger; test: Antifungal activity against Aspergillus niger; format: functional
# [14] = tested on: Staphylococcus aureus; test: Antibacterial activity against Staphylococcus aureus incubated for 18 hrs post 30 mins pre-diffusion by disk diffusion method; format: functional
# [15] = tested on: Escherichia coli; test: Antibacterial activity against Escherichia coli incubated for 18 hrs post 30 mins pre-diffusion by disk diffusion method; format: functional
Molecule,MIC [6],MIC [9],MIC [10],MIC [14],MIC [15],also measured
Cc1nc(-c2ccccc2)sc1-c1nnc(S)n1/N=C/c1ccc(F)cc1,,,,,,MIC [1]: 1.95 to 62.5 µg/mL; MIC [2]: 1.95 to 62.5 µg/mL; MIC [3]: 1.95 to 62.5 µg/mL; MIC [4]: 1.95 to 62.5 µg/mL; MIC [5]: 1.95 to 62.5 µg/mL
NYSTATIN,100 to 500 µg/mL,100 to 500 µg/mL,100 to 500 µg/mL,,,MIC [7]: 100 to 500 µg/mL; MIC [8]: 100 to 500 µg/mL
Cc1nc(-c2ccccc2)sc1-c1nnc(S)n1/N=C/c1cccc(Cl)c1,,,,,,MIC [1]: 1.95 to 62.5 µg/mL; MIC [2]: 1.95 to 62.5 µg/mL; MIC [3]: 1.95 to 62.5 µg/mL; MIC [4]: 1.95 to 62.5 µg/mL; MIC [5]: 1.95 to 62.5 µg/mL
Sc1nnc(-c2ccncc2)n1/N=C/c1ccc(Cl)cc1,10.2 to 162 µg/mL,10.2 to 162 µg/mL,10.2 to 162 µg/mL,,,MIC [11]: 10.2 to 162 µg/mL; MIC [12]: 10.2 to 162 µg/mL; MIC [13]: 10.2 to 162 µg/mL
Cc1nn(-c2ccccc2)c(-n2cncn2)c1-c1cc(-c2ccccc2)nc2nc3ccccc3n12,62.5 to 250 µg/mL,62.5 to 250 µg/mL,62.5 to 250 µg/mL,,,MIC [7]: 62.5 to 250 µg/mL; MIC [8]: 62.5 to 250 µg/mL
Fc1ccc(/C=N/n2c(-c3ccncc3)n[nH]c2=S)cc1,10.2 to 162 µg/mL,10.2 µg/mL,10.2 to 162 µg/mL,,,MIC [11]: 12.5 µg/mL; MIC [12]: 10.2 to 162 µg/mL; MIC [13]: 10.2 to 162 µg/mL
Cc1cc(C)cc(-c2nnc(Sc3cc(Cl)nc(Sc4ccccc4)n3)[nH]2)c1,,,,1.6 to 250 µg/mL,1.6 to 250 µg/mL,
CSc1nc(Cl)cc(Sc2nnc(-c3cccc(C(F)(F)F)c3)[nH]2)n1,,,,1.6 to 250 µg/mL,1.6 to 250 µg/mL,
COC1=CC(=O)C[C@@H](C)[C@]12Oc1c(Cl)c(OC)cc(OC)c1C2=O [GRISEOFULVIN],100 to 500 µg/mL,100 to 500 µg/mL,100 to 500 µg/mL,,,MIC [7]: 100 to 500 µg/mL; MIC [8]: 100 to 500 µg/mL
CSc1nccc(Sc2nnc(-c3cc(C)cc(C)c3)[nH]2)n1,,,,1.6 to 250 µg/mL,1.6 to 250 µg/mL,
FC(F)(F)c1cc(-c2nnc(Sc3cc(Cl)nc(Oc4ccccc4)n3)[nH]2)cc(C(F)(F)F)c1,,,,1.6 to 250 µg/mL,1.6 to 250 µg/mL,
Cc1nc(-c2ccccc2)sc1-c1nnc(S)n1/N=C/c1ccccc1O,,,,,,MIC [1]: 1.95 to 62.5 µg/mL; MIC [2]: 1.95 to 62.5 µg/mL; MIC [3]: 1.95 to 62.5 µg/mL; MIC [4]: 1.95 to 62.5 µg/mL; MIC [5]: 1.95 to 62.5 µg/mL
Brc1ccccc1-c1nnc2sc(-c3ccccc3)nn12,,,,,,MIC [12]: 3.12 µg/mL; MIC [13]: 6.25 µg/mL
Cc1nc(-c2ccccc2)sc1-c1nnc(S)n1/N=C/c1ccc(Br)cc1,,,,,,MIC [1]: 1.95 to 62.5 µg/mL; MIC [2]: 1.95 to 62.5 µg/mL; MIC [3]: 1.95 to 62.5 µg/mL; MIC [4]: 1.95 to 62.5 µg/mL; MIC [5]: 1.95 to 62.5 µg/mL
Cc1nn(-c2ccccc2)c(-n2cncn2)c1-c1cc(-c2ccc(-c3cc[nH]c3)cc2)nc2nc3ccccc3n12,62.5 to 250 µg/mL,62.5 to 250 µg/mL,62.5 to 250 µg/mL,,,MIC [7]: 62.5 to 250 µg/mL; MIC [8]: 62.5 to 250 µg/mL
CSc1nc(Cl)cc(Sc2nnc(-c3ccc(C(F)(F)F)cc3)[nH]2)n1,,,,1.6 to 250 µg/mL,1.6 to 250 µg/mL,
Sc1nnc(-c2ccncc2)n1/N=C/c1ccc(Br)cc1,10.2 to 162 µg/mL,10.2 to 162 µg/mL,10.2 to 162 µg/mL,,,MIC [11]: 10.2 to 162 µg/mL; MIC [12]: 10.2 to 162 µg/mL; MIC [13]: 10.2 to 162 µg/mL
CCCCCSc1nc(Cl)cc(Sc2nnc(-c3cc(C(F)(F)F)cc(C(F)(F)F)c3)[nH]2)n1,,,,1.6 to 250 µg/mL,1.6 to 250 µg/mL,
C=CC/C=N/n1c(S)nnc1-c1ccncc1,10.2 to 162 µg/mL,10.2 to 162 µg/mL,10.2 to 162 µg/mL,,,MIC [11]: 10.2 to 162 µg/mL; MIC [12]: 10.2 to 162 µg/mL; MIC [13]: 10.2 to 162 µg/mL
COc1ccc(/C=N/n2c(S)nnc2-c2ccncc2)cc1,10.2 to 162 µg/mL,10.2 to 162 µg/mL,10.2 to 162 µg/mL,,,MIC [11]: 10.2 to 162 µg/mL; MIC [12]: 10.2 to 162 µg/mL; MIC [13]: 10.2 to 162 µg/mL
CSc1nccc(Sc2nnc(-c3cc(C(F)(F)F)cc(C(F)(F)F)c3)[nH]2)n1,,,,1.6 to 250 µg/mL,1.6 to 250 µg/mL,
Fc1cc(F)cc(-c2nnc(Sc3cc(Cl)nc(Sc4ccccc4)n3)[nH]2)c1,,,,1.6 to 250 µg/mL,1.6 to 250 µg/mL,

Molecule,MIC [6],MIC [9],MIC [10],MIC [14],MIC [15],also measured
CSc1nc(Cl)cc(Sc2nnc(-c3cc(C)cc(C)c3)[nH]2)n1,,,,1.6 to 250 µg/mL,1.6 to 250 µg/mL,
CCC/C=N/n1c(S)nnc1-c1ccncc1,10.2 to 162 µg/mL,10.2 to 162 µg/mL,10.2 to 162 µg/mL,,,MIC [11]: 10.2 to 162 µg/mL; MIC [12]: 10.2 to 162 µg/mL; MIC [13]: 10.2 to 162 µg/mL
Cc1nn(-c2ccccc2)c(-n2cncn2)c1-c1cc(-c2ccc(O)cc2)nc2nc3ccccc3n12,62.5 to 250 µg/mL,62.5 to 250 µg/mL,62.5 to 250 µg/mL,,,MIC [7]: 62.5 to 250 µg/mL; MIC [8]: 62.5 to 250 µg/mL
OCCCCSc1nc(Cl)cc(Sc2nnc(-c3cc(C(F)(F)F)cc(C(F)(F)F)c3)[nH]2)n1,,,,1.6 to 250 µg/mL,1.6 to 250 µg/mL,
COc1cc(/C=N/n2c(S)nnc2-c2ccncc2)cc(OC)c1OC,10.2 to 162 µg/mL,10.2 to 162 µg/mL,10.2 to 162 µg/mL,,,MIC [11]: 10.2 to 162 µg/mL; MIC [12]: 10.2 to 162 µg/mL; MIC [13]: 10.2 to 162 µg/mL
C/C=N/n1c(S)nnc1-c1ccncc1,10.2 to 162 µg/mL,10.2 to 162 µg/mL,10.2 to 162 µg/mL,,,MIC [11]: 10.2 to 162 µg/mL; MIC [12]: 10.2 to 162 µg/mL; MIC [13]: 10.2 to 162 µg/mL
COc1ccc(-c2cc(-c3c(C)nn(-c4ccccc4)c3-n3cncn3)n3c(n2)nc2ccccc23)cc1,62.5 to 250 µg/mL,62.5 to 250 µg/mL,62.5 to 250 µg/mL,,,MIC [7]: 62.5 to 250 µg/mL; MIC [8]: 62.5 to 250 µg/mL
COc1cc(OC)cc(-c2nnc(Sc3cc(Cl)nc(SC)n3)[nH]2)c1,,,,1.6 to 250 µg/mL,1.6 to 250 µg/mL,
FC(F)(F)c1cc(-c2nnc(Sc3cc(Cl)ncn3)[nH]2)cc(C(F)(F)F)c1,,,,1.6 to 250 µg/mL,1.6 to 250 µg/mL,
Cc1ccc(-c2cc(-c3c(C)nn(-c4ccccc4)c3-n3cncn3)n3c(n2)nc2ccccc23)cc1,62.5 to 250 µg/mL,62.5 to 250 µg/mL,62.5 to 250 µg/mL,,,MIC [7]: 62.5 to 250 µg/mL; MIC [8]: 62.5 to 250 µg/mL
Cc1nn(-c2ccccc2)c(-n2cncn2)c1-c1cc(-c2ccc(-c3cccs3)cc2)nc2nc3ccccc3n12,62.5 to 250 µg/mL,62.5 to 250 µg/mL,62.5 to 250 µg/mL,,,MIC [7]: 62.5 to 250 µg/mL; MIC [8]: 62.5 to 250 µg/mL
O=[N+]([O-])c1ccc(/C=N/n2c(S)nnc2-c2ccncc2)cc1,10.2 to 162 µg/mL,10.2 to 162 µg/mL,10.2 to 162 µg/mL,,,MIC [11]: 10.2 to 162 µg/mL; MIC [12]: 10.2 to 162 µg/mL; MIC [13]: 10.2 to 162 µg/mL
Cc1ccc(/C=N/n2c(S)nnc2-c2ccncc2)cc1,10.2 to 162 µg/mL,10.2 to 162 µg/mL,10.2 to 162 µg/mL,,,MIC [11]: 10.2 to 162 µg/mL; MIC [12]: 10.2 to 162 µg/mL; MIC [13]: 10.2 to 162 µg/mL
FC(F)(F)c1cccc(-c2nnc(Sc3cc(Cl)nc(Sc4ccccc4)n3)[nH]2)c1,,,,1.6 to 250 µg/mL,1.6 to 250 µg/mL,
CC/C=N/n1c(S)nnc1-c1ccncc1,10.2 to 162 µg/mL,10.2 to 162 µg/mL,10.2 to 162 µg/mL,,,MIC [11]: 10.2 to 162 µg/mL; MIC [12]: 10.2 to 162 µg/mL; MIC [13]: 10.2 to 162 µg/mL
CSc1nc(Cl)cc(Sc2nnc(-c3cccc(F)c3)[nH]2)n1,,,,1.6 to 250 µg/mL,1.6 to 250 µg/mL,
FC(F)(F)c1ccc(-c2nnc(Sc3cc(Cl)nc(Sc4ccccc4)n3)[nH]2)cc1,,,,1.6 to 250 µg/mL,1.6 to 250 µg/mL,
Cc1cc(C)cc(-c2nnc(Sc3cc(Cl)ncn3)[nH]2)c1,,,,1.6 to 250 µg/mL,1.6 to 250 µg/mL,
Fc1cccc(-c2nnc(Sc3cc(Cl)nc(Sc4ccccc4)n3)[nH]2)c1,,,,1.6 to 250 µg/mL,1.6 to 250 µg/mL,
COc1cc(-c2nnc(Sc3cc(Cl)nc(Sc4ccccc4)n3)[nH]2)ccc1O,,,,1.6 to 250 µg/mL,1.6 to 250 µg/mL,
CSc1nc(Cl)cc(Sc2nnc(-c3cc(F)cc(F)c3)[nH]2)n1,,,,1.6 to 250 µg/mL,1.6 to 250 µg/mL,
Sc1nnc(-c2ccncc2)n1/N=C/c1ccccc1,10.2 to 162 µg/mL,14.1 to 17.2 µg/mL,10.2 to 162 µg/mL,,,MIC [11]: 14.1 to 17.2 µg/mL; MIC [12]: 10.2 to 162 µg/mL; MIC [13]: 10.2 to 162 µg/mL
